Data published in patent publication US20020165188A1, “Methods for inhibition of tumorigenic properties of melanoma cells” (priority 1999, published 2002).
Entries after “also recorded” stand apart in the source; their conditions may differ.

How the values were obtained:
E-cadherin = E-cadherin expression in melanocytic cells under HGF stimulation (immunoblot); type: cell-based, human
Experimental: (§1) Optimal viral concentrations for infection were determined as the amounts of virus required to yield the desired levels of gene expression without apparent alteration in cellular phenotype or toxicity. Subconfluent melanocytes and melanoma cells were infected with adenoviruses for 2-4 hours at 37° C. in protein-free W489 medium. Viral suspension was then replaced with culture medium. Because dominant negative Desmoglein-3 vector AxCALNLDsg3ΔEC and E-cadherin vector AxCALNLEcadΔEC were made using the Cre-loxP system (Hanakawa et al., 2000), AxCANCre was co-infected with AxCALNLDsg3ΔEC or AxCALNLEcacLΔEC at a ratio of 1:1, respectively. Cells were allowed to recover for at least 24 hours before assay.
(§2) For immunoblotting, cells were washed with PBS and harvested in RIPA buffer. Total protein concentrations were measured using the bicinchoninic acid (BCA) assay (Pierce Chemical Co. Rockford, Ill.). Samples were loaded at 15 μg/lane and separated on 8% SDS polyacrylamide gels and transferred to polyvinylidene difluoride (PVDF) membranes and probed with specific primary antibodies. To detect the signal, peroxidase-conjugated secondary antibody was added, followed by exposure using enhanced chemiluminescence (ECL) (Amersham, Arlington Heights, Ill.). Some of the immunoblots were quantified using NIH Image (version 1.61).

Desmoglein 1 = Desmoglein 1 expression in melanocytic cells under HGF stimulation (immunoblot); type: cell-based, human
Experimental: as §1, §2

c-Met = c-Met phosphorylation by immunoprecipitation and anti-phosphotyrosine blot; type: cell-based, human
Experimental: To investigate the status of c-Met phosphorylation, subconfluent melanoma cells were infected with LacZ or Ad.CMV.rhHGF (20 pfu/cell) and cultured for 48 hours. In neutralizing antibody-treated group, HGF neutralizing antibody (final concentration 10 ug/ml) was added to serum-free medium 24 hours before lysis. Cells were washed with cold PBS containing 1 mM Na3VO4, and rapidly scraped into 200 μl PBS containing 1% Triton X-100, 1% NP4O, 1 mM Na3VO4, 1 mM phenylmethyl sulfonyl fluoride (PMSF), and protease inhibitors (1 μg/ml leupeptin, aprotinin and pepstatin). After incubation on ice for 15 minutes, the extracts were separated by centrifugation at 13,000× g for 10 minutes. The supernatants were used for immunoprecipitation using an anti-c-Met antibody (5 μg) for 1 hour at 4° C. with shaking. Protein A-G sepharose CL-4B beads (Pharmacia Biotech, Uppsala, Sweden) were then added and incubated for 12 hours. Samples were washed four times with lysis buffer, boiled in Laemmli buffer containing (3-mercaptoethanol, and subjected to electrophoresis on an 8% SDS-polyacrylamide gel. Separated proteins were transferred onto PVDF membrane and detected by anti-phosphotyrosine primary antibody (PY2O) and peroxidase-conjugated secondary antibody. Signals were detected using ECL.

[1] = tested on: melanocytes or melanoma cells; experiment: Growth of melanocytes and melanoma cells after HGF treatment; type: cell-based, human; conditions: HGF treatment alone
IGF-R1 [2] = molecular target: T1, IGF-R1 (human, UniProt P08069 31-1367, limits assumed); experiment: co-immunoprecipitation with anti-Desmoglein 1 antibody, blot probed with anti-IGF-R1 antibody
T1 construct: Specificity control of the co-immunoprecipitation; also called IF-R1
Description: (§3) Desmoglein 1, E-cadherin, c-Met and Plakoglobin can be co-immunoprecipitated from melanocytic cells. […] To test the possibility that physical interactions underlie the crosstalk between HGF/c-Met signaling and adhesion receptor regulation, the complex formation was investigated by immunoprecipitation analyses. Desmoglein 1, Plakoglobin, c-Met and E-cadherin were detected in the complexes pulled down by either anti-Desmoglein 1 antibody or anti-Plakoglobin antibody in keratinocytes and melanocytes. WM278 expresses no E-cadherin, but the other components were also found to form complexes. The specificity of the interaction was confirmed by probing the same blots with anti-IF-R1 antibody. IF-R1 was not detected in the immunoprecipitants but IF-R1 was detectable in whole cell extract.
(§4) To investigate c-Met Desmoglein lE-cadherin complexes, cells cultured in their optimal media were lysed in 10 mM Tris-HCl (pH7.4), 1% NP-40, 1% Triton X-100, 2mM CaCl₂, 150 mM NaCl, 1 mM PMSF and protease inhibitors (1 μg/ml leupeptin, aprotinin and pepstatin). The extracts were immunoprecipitated using either anti-Desmoglein 1 or anti-Plakoglobin antibody in the same condition described above. Immunoprecipitants were separated on gels, transferred onto PVDF membrane and probed with anti-Desmoglein 1, -Plakoglobin, -c-Met and -E-cadherin antibodies.

IGF-R1 [3] = molecular target: T1, IGF-R1; experiment: co-immunoprecipitation with anti-Plakoglobin antibody, blot probed with anti-IGF-R1 antibody
Description: as §3, §4

[4] = Ad.CMV.rhHGF transduced melanocytes, antibody 10 μg/ml, wortmannin 30 μM, PD98059 10 μM and 50 μM
[5] = autocrine activation by HGF-expressing adenovirus, melanocytes, WM164, WM35
[6] = continuous/prolonged HGF stimulation (three days; Ad.CMV.rhHGF 20 pfu/cell), melanocytes, WM164 and WM35
[7] = melanocytes, one pulse of recombinant protein 50 ng/ml, five and twelve hour intervals

T1 sequence (P08069 31-1367 limits assumed): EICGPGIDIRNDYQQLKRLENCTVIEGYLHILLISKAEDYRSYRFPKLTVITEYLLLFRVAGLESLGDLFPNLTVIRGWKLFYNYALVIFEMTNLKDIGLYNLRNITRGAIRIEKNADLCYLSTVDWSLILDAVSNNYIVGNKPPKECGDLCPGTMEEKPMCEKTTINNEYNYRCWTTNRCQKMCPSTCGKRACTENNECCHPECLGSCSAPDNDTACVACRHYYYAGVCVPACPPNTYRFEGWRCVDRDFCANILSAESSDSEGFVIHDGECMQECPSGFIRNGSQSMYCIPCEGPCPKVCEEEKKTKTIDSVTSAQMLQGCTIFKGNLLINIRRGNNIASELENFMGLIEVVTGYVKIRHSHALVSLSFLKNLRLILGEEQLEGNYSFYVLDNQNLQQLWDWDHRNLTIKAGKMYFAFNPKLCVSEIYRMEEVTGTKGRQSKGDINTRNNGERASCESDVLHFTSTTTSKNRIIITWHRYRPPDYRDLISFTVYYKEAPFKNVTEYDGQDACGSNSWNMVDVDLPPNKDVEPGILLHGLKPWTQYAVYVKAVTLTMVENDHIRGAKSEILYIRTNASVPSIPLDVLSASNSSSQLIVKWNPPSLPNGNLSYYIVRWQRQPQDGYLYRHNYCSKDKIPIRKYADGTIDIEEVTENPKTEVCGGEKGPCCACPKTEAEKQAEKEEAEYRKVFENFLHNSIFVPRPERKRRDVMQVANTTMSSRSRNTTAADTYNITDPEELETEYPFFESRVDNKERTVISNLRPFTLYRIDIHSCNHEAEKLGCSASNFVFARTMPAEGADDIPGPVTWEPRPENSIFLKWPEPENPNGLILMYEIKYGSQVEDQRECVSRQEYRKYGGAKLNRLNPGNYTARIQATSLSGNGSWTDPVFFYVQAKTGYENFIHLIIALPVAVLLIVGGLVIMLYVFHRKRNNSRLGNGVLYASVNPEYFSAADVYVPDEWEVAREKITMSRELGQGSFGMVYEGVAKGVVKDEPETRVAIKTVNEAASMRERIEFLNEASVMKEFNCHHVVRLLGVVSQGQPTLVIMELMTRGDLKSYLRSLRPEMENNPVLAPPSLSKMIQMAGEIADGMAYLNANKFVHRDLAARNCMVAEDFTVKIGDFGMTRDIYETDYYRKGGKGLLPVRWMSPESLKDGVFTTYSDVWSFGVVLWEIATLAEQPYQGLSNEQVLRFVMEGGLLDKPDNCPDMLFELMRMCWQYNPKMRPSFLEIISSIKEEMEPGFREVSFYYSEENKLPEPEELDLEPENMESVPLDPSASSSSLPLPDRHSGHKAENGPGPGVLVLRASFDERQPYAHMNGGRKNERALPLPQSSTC

Molecule: COc1cccc(-c2cc(=O)c3ccccc3o2)c1N [PD98059, reference compound]
- blocking of HGF-induced downregulation of E-cadherin (E-cadherin; [4]): less effective
- blocking of downregulation of E-cadherin (summary statement) (E-cadherin; [5]): partially blocked
- blocking of HGF-induced downregulation of Desmoglein 1 (Desmoglein 1; [4]): less effective
- blocking of downregulation of Desmoglein 1 (summary statement) (Desmoglein 1; [5]): partially blocked

Molecule: HGF: multi-functional cytokine acting through tyrosine kinase receptor c-met; recombinant human HGF from R&D Systems
- levels of c-Met (c-Met; after HGF treatment): did not change
- tyrosine-phosphorylated c-Met (c-Met; melanocytes and melanoma cells treated with additional HGF): dramatic increase
- expression levels of E-cadherin (E-cadherin; [6]): greatly reduced
- E-cadherin expression after pulse HGF (E-cadherin; [7]): did not alter; also recorded: did not cause downregulation
- expression levels of Desmoglein 1 (Desmoglein 1; [6]): greatly reduced
- Desmoglein expression after pulse HGF (Desmoglein 1; [7]): did not alter; also recorded: did not cause downregulation
- growth stimulation [1]: No significant growth stimulation

B1: Desmoglein 1 (other, human, UniProt Q02413 50-1049, looked up)
chain: EWIKFAAACREGEDNSKRNPIAKIHSDCAANQQVTYRISGVGIDQPPYGIFVINQKTGEINITSIVDREVTPFFIIYCRALNSMGQDLERPLELRVRVLDINDNPPVFSMATFAGQIEENSNANTLVMILNATDADEPNNLNSKIAFKIIRQEPSDSPMFIINRNTGEIRTMNNFLDREQYGQYALAVRGSDRDGGADGMSAECECNIKILDVNDNIPYMEQSSYTIEIQENTLNSNLLEIRVIDLDEEFSANWMAVIFFISGNEGNWFEIEMNERTNVGILKVVKPLDYEAMQSLQLSIGVRNKAEFHHSIMSQYKLKASAISVTVLNVIEGPVFRPGSKTYVVTGNMGSNDKVGDFVATDLDTGRPSTTVRYVMGNNPADLLAVDSRTGKLTLKNKVTKEQYNMLGGKYQGTILSIDDNLQRTCTGTININIQSFGNDDRTNTEPNTKITTNTGRQESTSSTNYDTSTTSTDSSQVYSSEPGNGAKDLLSDNVHFGPAGIGLLIMGFLVLGLVPFLMICCDCGGAPRSAAGFEPVPECSDGAIHSWAVEGPQPEPRDITTVIPQIPPDNANIIECIDNSGVYTNEYGGREMQDLGGGERMTGFELTEGVKTSGMPEICQEYSGTLRRNSMRECREGGLNMNFMESYFCQKAYAYADEDEGRPSNDCLLIYDIEGVGSPAGSVGCCSFIGEDLDDSFLDTLGPKFKKLADISLGKESYPDLDPSWPPQSTEPVCLPQETEPVVSGHPPISPHFGTTTVISESTYPSGPGVLHPKPILDPLGYGNVTVTESYTTSDTLKPSVHVHDNRPASNVVVTERVVGPISGADLHGMLEMPDLRDGSNVIVTERVIAPSSSLPTSLTIHHPRESSNVVVTERVIQPTSGMIGSLSMHPELANAHNVIVTERVVSGAGVTGISGTTGISGGIGSSGLVGTSMGAGSGALSGAGISGGGIGLSSLGGTASIGHMRSSSDHHFNQTIGSASPSTARSRITKYSTVQYSK
notes: Endogenous protein immunoprecipitated from detergent lysates of cultured human cells; also called Dsg1
- binding result (IGF-R1 [2]): no binding

B2: Plakoglobin (other, human, UniProt P14923 1-745, looked up)
chain: MEVMNLMEQPIKVTEWQQTYTYDSGIHSGANTCVPSVSSKGIMEEDEACGRQYTLKKTTTYTQGVPPSQGDLEYQMSTTARAKRVREAMCPGVSGEDSSLLLATQVEGQATNLQRLAEPSQLLKSAIVHLINYQDDAELATRALPELTKLLNDEDPVVVTKAAMIVNQLSKKEASRRALMGSPQLVAAVVRTMQNTSDLDTARCTTSILHNLSHHREGLLAIFKSGGIPALVRMLSSPVESVLFYAITTLHNLLLYQEGAKMAVRLADGLQKMVPLLNKNNPKFLAITTDCLQLLAYGNQESKLIILANGGPQALVQIMRNYSYEKLLWTTSRVLKVLSVCPSNKPAIVEAGGMQALGKHLTSNSPRLVQNCLWTLRNLSDVATKQEGLESVLKILVNQLSVDDVNVLTCATGTLSNLTCNNSKNKTLVTQNSGVEALIHAILRAGDKDDITEPAVCALRHLTSRHPEAEMAQNSVRLNYGIPAIVKLLNQPNQWPLVKATIGLIRNLALCPANHAPLQEAAVIPRLVQLLVKAHQDAQRHVAAGTQQPYTDGVRMEEIVEGCTGALHILARDPMNRMEIFRLNTIPLFVQLLYSSVENIQRVAAGVLCELAQDKEAADAIDAEGASAPLMELLHSRNEGTATYAAAVLFRISEDKNPDYRKRVSVELTNSLFKHDPAAWEAAQSMIPINEPYGDDMDATYRPMYSSDVPLDPLEMHMDMDGDYPIDTYSDGLRPPYPTADHMLA
notes: Endogenous protein immunoprecipitated from detergent lysates of cultured human cells; also called gamma-catenin; y-catenin
- binding result (IGF-R1 [3]): no binding
